The conditions of series [1]: [M+H]+; instrument: TW; Major Mix IMS/Tof Calibration Kit (Waters).
For series [2] the following is noted: instrument: TW, calibrated with phosphatidylcholines (ESI+) and phosphatidylethanolamines (ESI-).
For series [3] the following is noted: [M+H]+; instrument: DT; stepped-field.
For series [4] the following is noted: instrument: DT, single field, calibrated with Agilent tune mix (Agilent).

We go through 49 molecules from the C3SDB collision cross section collection.

Take `O=C1Nc2ccc(Br)cc2C(c2ccccn2)=NC1O` (centres undefined) [3-Hydroxybromazepam]: the “collision cross section (N2)” value in series [1] is on record as 161 Å².

As for `COc1ccc2cccc(CCNC(C)=O)c2c1` [Agomelatine], the “collision cross section (N2)” value in series [1] was 156.3 Å².

On to `CC(CN(C)C)CN1c2ccccc2Sc2ccccc21` (centres undefined) [Alimemazine], for which the “collision cross section (N2)” value in series [1] is given as 166.8 Å².

Consider `CN(C)CCc1c[nH]c2ccc(CS(=O)(=O)N3CCCC3)cc12` [Almotriptan], for which, in series [1], the “collision cross section (N2)” value was 175.8 Å².

For `CCCCc1oc2ccccc2c1C(=O)c1cc(I)c(OCCNCC)c(I)c1` [Amiodarone-M N-Desethyl], the “collision cross section (N2)” value in series [1] was determined as 219.8 Å².

Turning to `CCCC1C(=O)N2C(N(C)C)=Nc3ccc(C)cc3N2C1=O` (centres undefined) [Apazone], the “collision cross section (N2)” value in series [1] is recorded as 169.5 Å².

As to `CN1C[C@@H]2c3ccccc3Oc3ccc(Cl)cc3[C@H]2C1` [Asenapine], the “collision cross section (N2)” value in series [1] was found to be 167.6 Å².

Take `CNCC[C@@H](Oc1ccccc1C)c1ccccc1` [Atomoxetine]: in series [1], the “collision cross section (N2)” value stood at 164.2 Å².

Regarding `CC(C)c1c(C(=O)Nc2ccccc2)c(-c2ccccc2)c(-c2ccc(F)cc2)n1CC[C@@H](O)C[C@@H](O)CC(=O)O` [Atorvastatin], the “collision cross section (N2)” value in series [1] came out at 233 Å².

For the molecule `CN(C)C(=O)Oc1cc(OC(=O)N(C)C)cc(C(O)CNC(C)(C)C)c1` (centres undefined) [Bambuterol], in series [1], the “collision cross section (N2)” value is recorded as 189.7 Å².

For the molecule `OC(CCN1CCCCC1)(c1ccccc1)C1C[C@H]2C=C[C@@H]1C2` (some centres undefined) [Biperiden], in series [1], the “collision cross section (N2)” value is listed as 177.7 Å².

Turning to `O=C1CN=C(c2ccccn2)c2cc(Br)ccc2N1` [Bromazepam], the “collision cross section (N2)” value in series [1] turned out to be 159.8 Å².

With `C[C@@H](N)Cc1c2ccoc2c(Br)c2ccoc12` [Bromodragonfly], the “collision cross section (N2)” value in series [1] was determined as 158.1 Å².

Turning to `CO[C@]12CC[C@@]3(C[C@@H]1[C@](C)(O)C(C)(C)C)[C@H]1Cc4ccc(O)c5c4[C@@]3(CCN1CC1CC1)[C@H]2O5` [Buprenorphine], in series [1], the “collision cross section (N2)” value stood at 209.7 Å².

On to `COc1cc(CNC(=O)CCCC/C=C/C(C)C)ccc1O` [Capsaicin], for which the “collision cross section (N2)” value in series [1] was found to be 183 Å².

Turning to `O=C(O)COCCN1CCN(C(c2ccccc2)c2ccc(Cl)cc2)CC1` (centres undefined) [Cetirizine], the “collision cross section (N2)” value in series [1] was determined as 200.8 Å².

With `CN(C)CCCN1c2ccccc2Sc2ccc(Cl)cc21` [Chlorpromazine], the “collision cross section (N2)” value in series [1] was 170.6 Å².

In the case of `O=C1CC(=O)N(c2ccccc2)c2cc(Cl)ccc2N1` [Clobazam-M nor], the “collision cross section (N2)” value in series [1] is 161.7 Å².

As for `CN1C(=O)CC(=O)N(c2ccccc2)c2cc(Cl)ccc21` [Clobazam], the “collision cross section (N2)” value in series [1] came out at 165.7 Å².

For `CN(C)CCCN1c2ccccc2CCc2ccc(Cl)cc21` [Clomipramine], in series [1], the “collision cross section (N2)” value stood at 174.3 Å².

Consider `Nc1ccc2c(c1)C(c1ccccc1Cl)=NCC(=O)N2` [Clonazepam-M 7-amino], for which, in series [1], the “collision cross section (N2)” value is reported as 162.5 Å².

On to `COC(=O)[C@H]1[C@@H](OC(=O)c2ccccc2)C[C@@H]2CC[C@H]1N2C` [Cocaine], for which, in series [1], the “collision cross section (N2)” value was 169.8 Å².

As to `COc1ccc2c3c1O[C@H]1[C@@H](O)C=C[C@H]4[C@@H](C2)N(C)CC[C@@]341` [Codeine], in series [1], the “collision cross section (N2)” value is given as 168.2 Å².

On to `CN1C(=O)CC[C@H]1c1cccnc1` [Cotinine], for which the “collision cross section (N2)” value in series [1] is 140.7 Å².

As to `O=C1C[N+]([O-])=C(c2ccccc2)c2cc(Cl)ccc2N1` [Demoxepam], the “collision cross section (N2)” value in series [1] was 161.7 Å².

With `c1ccc(C(c2ccccc2)C2CCCCN2)cc1` (centres undefined) [Desoxypipradrol], the “collision cross section (N2)” value in series [1] is given as 164.1 Å².

Turning to `O=C1CN=C(c2ccccc2)c2cc(Cl)ccc2N1` [Diazepam-M N-desmethyl], in series [1], the “collision cross section (N2)” value is listed as 160.1 Å².

In the case of `CN1C(=O)CN=C(c2ccccc2)c2cc(Cl)ccc21` [Diazepam], the “collision cross section (N2)” value in series [1] turned out to be 164.2 Å².

In the case of `CCCCOc1cc(C(=O)NCCN(CC)CC)c2ccccc2n1` [Dibucaine], the “collision cross section (N2)” value in series [1] was determined as 196.2 Å².

Consider `CNCC[C@H](Oc1cccc2ccccc12)c1cccs1` [Duloxetine], for which the “collision cross section (N2)” value in series [1] turned out to be 171 Å².

In the case of `C/C=C1\N(C)C(C)CC1(c1ccccc1)c1ccccc1` (centres undefined) [EDDP], in series [1], the “collision cross section (N2)” value turned out to be 166.2 Å².

`CCOC(=O)[C@H](CCc1ccccc1)N[C@@H](C)C(=O)N1CCC[C@H]1C(=O)O` [Enalapril]: the “collision cross section (N2)” value in series [1] amounted to 187.2 Å².

For `CCOC(=O)C(c1ccccc1)C1CCCCN1` (centres undefined) [Ethylphenidate], in series [1], the “collision cross section (N2)” value is 159.5 Å².

Take `CC(C)(C(=O)O)c1ccc(C(O)CCCN2CCC(C(O)(c3ccccc3)c3ccccc3)CC2)cc1` (centres undefined) [Fexofenadine]: the “collision cross section (N2)” value in series [1] came out at 226.9 Å².

Turning to `CNC(C)C(=O)c1ccc(F)cc1` (centres undefined) [Flephedrone], the “collision cross section (N2)” value in series [1] was determined as 139.8 Å².

Take `COc1ccc2c3c1O[C@H]1C[C@@H](O)C=C[C@@]31CCN(C)C2` [Galantamine]: the “collision cross section (N2)” value in series [1] was 166.9 Å².

As to `CCC1=C(C)CN(C(=O)NCCc2ccc(S(=O)(=O)NC(=O)NC3CCC(C)CC3)cc2)C1=O` (centres undefined) [Glimepiride], the “collision cross section (N2)” value in series [1] is listed as 216.6 Å².

As for `Cc1cnc(C(=O)NCCc2ccc(S(=O)(=O)NC(=O)NC3CCCCC3)cc2)cn1` [Glipizide], in series [1], the “collision cross section (N2)” value stood at 198.9 Å².

With `O=C(CCCN1CCC(O)(c2ccc(Cl)cc2)CC1)c1ccc(F)cc1` [Haloperidol], the “collision cross section (N2)” value in series [1] was determined as 193.7 Å².

For the molecule `CCCCCCCCCCCCCCCCCC(=O)O[C@H](CO)COP(=O)([O-])OCC[N+](C)(C)C` [LPC(18:0)], the “collision cross section (N2)” value amounted to 235.7 Å² in series [2] ([M+H]+); 240.7 Å² in series [3]; 241.4 Å² in series [4] ([M+HCOO]-); 237.9 Å² in series [4] ([M+H]+); 240.8 Å² in series [4] ([M+Na]+).

As to `CC/C=C\C/C=C\C/C=C\C/C=C\C/C=C\CCCC(=O)O[C@H](CO/C=C\CCCCCCCCCCCCCCCC)COP(=O)(O)OCCN` [PE(p38:5)], the “collision cross section (N2)” value in series [2] ([M+H]+) is given as 278.3 Å²; in series [2] ([M+Na]+), 279.4 Å²; in series [2] ([M-H]-) it was 268.7 Å²; in series [4] ([M+H]+), 280.2 Å²; in series [4] ([M-H]-) it was 270.6 Å².

In the case of `CCCCC/C=C\C/C=C\C/C=C\CCCCCCC(=O)O[C@H](CO/C=C\CCCCCCCCCCCCCCCCCC)COP(=O)(O)OCCN` [PE(p40:3)], the “collision cross section (N2)” value in series [2] ([M+H]+) came to 287.9 Å²; in series [4] ([M-H]-), 277.1 Å².

Consider `CCCC/C=C\CCCCCCCC(=O)OC[C@H](COP(=O)(O)OC[C@@H](O)CO)OC(=O)CCCCCCCCC/C=C\C/C=C\CCCCC` [PG(34:3)], for which the “collision cross section (N2)” value is 275.1 Å² in series [2] ([M+Na]+) and 266.2 Å² in series [4] ([M-H]-).

`CC/C=C\C/C=C\C/C=C\C/C=C\CCCCC(=O)OC[C@H](COP(=O)(O)OC[C@@H](O)CO)OC(=O)CCCCCCCCC/C=C\CCCCCCCC` [PG(38:5)]: the “collision cross section (N2)” value in series [2] ([M+Na]+) is reported as 285.9 Å²; in series [2] ([M-H]-), 276.5 Å²; in series [4] ([M+H]+), 292.1 Å²; in series [4] ([M+Na]+), 288.8 Å².

Consider `CC/C=C\C/C=C\C/C=C\C/C=C\C/C=C\C/C=C\CCC(=O)O[C@H](COC(=O)CCCCCCCCCCCCCCC)COP(=O)(O)OC[C@@H](O)CO` [PG(38:6)], for which the “collision cross section (N2)” value is on record as 284 Å² in series [2] ([M+Na]+); 275.6 Å² in series [2] ([M-H]-); 289.3 Å² in series [4] ([M+H]+); 290.2 Å² in series [4] ([M+NH4]+); 286 Å² in series [4] ([M+Na]+).

For the molecule `CCCCC/C=C\C/C=C\C/C=C\C/C=C\CCCCCC(=O)OC[C@H](COP(=O)(O)OC[C@@H](O)CO)OC(=O)CCCCCCC/C=C\CCCCCCCC` [PG(40:5)], the “collision cross section (N2)” value in series [2] ([M+Na]+) amounted to 292.7 Å²; in series [2] ([M-H]-), 283 Å²; in series [4] ([M+NH4]+), 298.9 Å²; in series [4] ([M+Na]+) it was 295.2 Å²; in series [4] ([M-H]-) it was 283.4 Å².

On to `CCCCCCCCCC/C=C\CCCCCCCCCC(=O)O[C@H](COC(=O)CCCCCCCCCCC)COP(=O)(O)O[C@H]1C(O)C(O)C(O)[C@@H](O)C1O` (some centres undefined) [PI(34:1)], for which the “collision cross section (N2)” value in series [2] ([M-H]-) is given as 283.7 Å²; in series [4] ([M+H]+), 294.9 Å²; in series [4] ([M+NH4]+), 295.8 Å²; in series [4] ([M+Na]+) it was 292.4 Å²; in series [4] ([M-H]-), 283.7 Å².

For `CCCCC/C=C\C/C=C\CCCCCCCCCCCC(=O)O[C@H](COC(=O)CCCCCCCCCCC)COP(=O)(O)O[C@H]1C(O)C(O)C(O)[C@@H](O)C1O` (some centres undefined) [PI(34:2)], the “collision cross section (N2)” value in series [2] ([M-H]-) is 282.4 Å²; in series [4] ([M+H]+) it was 291.6 Å²; in series [4] ([M+NH4]+), 292.9 Å²; in series [4] ([M-H]-), 282.4 Å².

For the molecule `CCCCC/C=C\C/C=C\CCCCCCCCCCCC(=O)O[C@H](COC(=O)CCCCCCC/C=C\C/C=C\CCCCC)COP(=O)(O)O[C@H]1C(O)C(O)C(O)[C@@H](O)C1O` (some centres undefined) [PI(40:4)], the entries for the “collision cross section (N2)” value in series [2] ([M-H]-), in series [4] ([M+Na]+) and in series [4] ([M-H]-) were 297.1 Å², 307.1 Å² and 298.2 Å², respectively.
